Source: PubChem BioAssay AID651655 (NMMLSC, 2012)
Active and inactive are the calls of the source.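 How the source made its calls: active means viability at the highest tested concentration below 50%; inactive means the rest.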

Tested on: not listed separately
Test: viability loss, cell-based, CellTiter-Glo luminescence, cherry picks 01-02, cytotoxicity control for ABCB6 inhibitor project, dose response (AID 651655)
Conditions: K562 vector control cells viability, CellTiter-Glo, 18 h; at 100 µM (top of the series)

**Q.** With `COC(=O)c1ccc(NC(=O)c2nc(S(=O)(=O)Cc3cccc(C)c3)ncc2Cl)cc1` as the compound, how does the viability read?
**A.** Its viability is 82.7% (inactive).

**Q.** With `O=C(Nc1ccc(F)cc1)c1nc(S(=O)(=O)Cc2ccccc2)ncc1Cl` as the compound, how does the viability read?
**A.** Its viability is 81.6% (inactive).

**Q.** With `Cc1cccc(CS(=O)(=O)c2ncc(Cl)c(C(=O)Nc3ccc(F)cc3)n2)c1` as the compound, how does the viability read?
**A.** The viability was 90.2% (inactive).

**Q.** For `Cc1ccccc1CS(=O)(=O)c1ncc(Cl)c(C(=O)Nc2ccc(F)cc2)n1`, which viability is on record?
**A.** Its viability is 61.6% (inactive).

**Q.** For `CCN(CC)S(=O)(=O)c1cccc(-n2c(O)c(C=Nc3ccccc3C(=O)O)c3ccccc3c2=O)c1`, which viability is on record?
**A.** The viability was 79% (inactive).

**Q.** For `Cc1ccc(NC(=O)c2nc(S(=O)(=O)Cc3ccccc3)ncc2Cl)cc1`, which viability is on record?
**A.** Its viability is 80.4% (inactive).

**Q.** For `C[N+](C)(C)CC1CCCC(C[N+](C)(C)C)C1=O` (stereo not given), which viability is on record?
**A.** Its viability is 67.5% (inactive).

**Q.** For `CCCc1nnc(NC(=O)c2nc(S(=O)(=O)Cc3cccc(C)c3)ncc2Cl)s1`, which viability is on record?
**A.** Its viability is 71.2% (inactive).

Tested on: K562 vector control cells viability, CellTiter-Glo, 18 h
Test: as above
Conditions: not given

**Q.** With `CCOc1ccccc1NC(=O)c1nc(S(=O)(=O)Cc2ccccc2)ncc1Cl` as the compound, how does the EC50 read?
**A.** Its EC50 is 2200 nM.

**Q.** Which EC50 does the source give for `CC(=O)Nc1ccc(NC(=O)c2nc(S(=O)(=O)Cc3cccc(C)c3)ncc2Cl)cc1` here?
**A.** Its EC50 is 660 nM.

**Q.** Which EC50 does the source give for `CCOC(=O)c1ccc(NC(=O)c2nc(S(=O)(=O)Cc3ccccc3)ncc2Cl)cc1` here?
**A.** The EC50 was 1930 nM.

**Q.** With `CC(=O)Nc1ccc(NC(=O)c2nc(S(=O)(=O)Cc3ccccc3)ncc2Cl)cc1` as the compound, how does the EC50 read?
**A.** The EC50 was 911 nM.

**Q.** For `Cc1ccc(NC(=O)c2nc(S(=O)(=O)Cc3ccccc3C)ncc2Cl)cc1C`, which EC50 is on record?
**A.** Its EC50 is 758 nM.

**Q.** Which EC50 does the source give for `Cc1cccc(CS(=O)(=O)c2ncc(Cl)c(C(=O)Nc3nnc(C(C)C)s3)n2)c1` here?
**A.** Its EC50 is 627 nM.

**Q.** With `Cc1ccc(CS(=O)(=O)c2ncc(Cl)c(C(=O)Nc3nnc(C(C)C)s3)n2)cc1` as the compound, how does the EC50 read?
**A.** Its EC50 is 596 nM.

**Q.** Which EC50 does the source give for `Cc1ccc(CS(=O)(=O)c2ncc(Cl)c(C(=O)Nc3ccc(OC(F)F)cc3)n2)cc1` here?
**A.** The EC50 was 741 nM.

**Q.** Which EC50 does the source give for `Cc1nnc(NC(=O)c2nc(S(=O)(=O)Cc3ccccc3)ncc2Cl)s1` here?
**A.** Its EC50 is 2050 nM.

**Q.** For `Cc1cccc(C)c1NC(=O)c1nc(S(=O)(=O)Cc2ccccc2)ncc1Cl`, which EC50 is on record?
**A.** The EC50 was 979 nM.

**Q.** Which EC50 does the source give for `CCOc1ccccc1NC(=O)c1nc(S(=O)(=O)Cc2cccc(C)c2)ncc1Cl` here?
**A.** The EC50 was 715 nM.

**Q.** Which EC50 does the source give for `CCc1ccc(NC(=O)c2nc(S(=O)(=O)Cc3ccccc3)ncc2Cl)cc1` here?
**A.** Its EC50 is 390 nM.
